This is an account of results in patent publication US20240374578A1, “USE OF MEDICINE FOR REDUCING IRON CONTENT IN BRAIN IN PREPARATION OF DRUG FOR TREATING AND/OR PREVENTING NEUROPSYCHIATRIC DISEASES” (SOOCHOW UNIVERSITY, priority 2022, published 2024).

Molecules are shown by their SMILES.

The test system of the assay is morphine addiction in mice. Description: Morphine conditioned place preference scoring of mice. It counts as in vivo, C57BL/6J mice. The following applies: 6 h before morphine 20 mg/kg/day i.p., 7 days, vs morphine group.

As to `Cc1c(O)c(=O)ccn1C` [Deferiprone, 3-hydroxy-1,2-dimethyl-4-(1H)-pyridone], the “preference score on morphine-paired side” value (Deferiprone 13 mg/mL, 1 μL into dorsal hippocampus, FIG. 5) is given as “significantly reduced”. Consider `O=C(O)CNC(=O)c1ncc(-c2cccc(Cl)c2)cc1O` [Vadadustat], for which, where the note is “Vadadustat 10 mg/kg/day i.p., FIG. 4”, the “preference score on morphine-paired side” value was “significantly reduced”.
